From US10406158B2, “Methods and compositions for treating abnormal cell growth” (Verastem, Inc., priority 2014, dated 2019) come the findings set out here.

The test system of test [1] is breast cancer cells (MDA-MB-231). The test is described as follows: Matrigel on-top (MoT) 3D culture, CellTiter-Glo cell viability, 9x9 combination matrix. Particulars: MEK inhibitor in combination with FAK inhibitor VS-6063, 96 hours incubation, compared with Bliss, HSA and Loewe models. The class given is cell-based. The procedure:
(§1) Cell Lines: Cancer cell lines were purchased from American Type Culture Collection (Manassas, VA) and cultured under ATCC recommended standard culture conditions. Mero-41 (mesothelioma cell line) were purchased from Sigma-Aldrich (St. Louis, MO) and cultured under ECACC recommended standard culture conditions. […] TOV-21G (ovarian clear cell carcinoma cell line) were cultured under ECACC recommended standard culture conditions. Growth media for all cell lines were supplemented with penicillin (100 units/ml)/streptomycin (100 μg/ml).
(§2) Compound were used at the top concentration 10 uM in a 2-fold dilution. Paclitaxel was dosed at the top concentration 1 uM in a 3-fold dilution.
(§3) A ‘Matrigel on-top’ (MoT) assay where cells were propagated in a 3-dimentional culture was used. Cells were plated above a dense base layer of Matrigel (BD Biosciences, Franklin Lakes, N.J.), diluted 1:1 with culture medium. Single cell preparations were resuspended in dilute Matrigel (1:50 in culture medium) and seeded to cover the Matrigel base layer. This ensured that ovarian cancer cells were surrounded with extracellular matrix (ECM) components, of which collagen and laminin are the major Matrigel constituents. Cells were seeded in a density of 500 cells per well in 384-well black Ultra-low attachment plates with clear bottom (Corning, Tewksbury MA). […] Cell survival/proliferation was assessed by CellTiter-Glo® Luminescent Cell Viability Assay (Promega, Madison, Wis.).
(§4) Combination effects were evaluated by comparing the averaged viability/inhibition to three different null reference models derived from the single agent activities.
(§5) The expected additivity effect is the statistical expectation for the combined effect from independent inhibitors: Mathematically, Bliss (FU)=FUA1 X FUA2, where FUA1 and FUA2 are the unaffected fraction when treated with compounds Al and A2, respectively.
(In general: In ATP-based viability assays light output follows the ATP content of the culture.)

In test [2] the test system is mesothelioma cells (Mero-41). The test is described as above. Particulars: MEK inhibitor in combination with FAK inhibitor VS-6063, 96 hours incubation, compared with Bliss, HSA and Loewe models. The class given is cell-based. The method, then: as §1, §2, §3, §4, §5

With `O=C(NOCCO)c1ccc2cncn2c1Nc1ccc(I)cc1F` [GDC-0623], the “combination effect on cell viability” value in test [1] and in test [2] was “more than additive effect” each time.
As to trametinib, the “combination effect on cell viability” value in test [1] and in test [2] was “more than additive effect” throughout.
For the molecule `Cn1cnc2c(F)c(Nc3ccc(Br)cc3Cl)c(C(=O)NOCCO)cc21` [AZD-6244], in test [2], the “combination effect on cell viability” value is reported as “more than additive effect”.
As for `O=C(NC[C@H](O)CO)c1ccncc1Nc1ccc(I)cc1F` [pimasertib], the “combination effect on cell viability” value in test [1] and in test [2] was “more than additive effect” each time.
For cobimetinib, the “combination effect on cell viability” value in test [1] and in test [2] was “more than additive effect” in each case.
